How the values were obtained:
[1] = system: glial and neuronal cells; assay: MTT assay, viability of brain cells in primary cultures; assay type: cell-based, rat; conditions: 0, 10, 20 and 50 μM for 24 hours; up to 50 μM; microglia, astrocytes, cerebellar granular neurons (FIGS. 4a-4c)
Method: Mixed glial cell cultures were prepared from cerebral cortex of newborn Wistar rats (Rattus norvegicus), as previously described [Monti, B.; D'Alessandro, C.; Farini, V.; Bolognesi, A.; Polazzi, E.; Contestabile, A.; Stirpe, F.; Battelli, M. G. In vitro and in vivo toxicity of type 2 ribosome-inactivating proteins lanceolin and stenodactylin on glial and neuronal cells. Neurotoxicology 2007, 28, 637-644]. Briefly, brain tissue was cleaned from meninges, trypsinized for 15 minutes at 37° C. and, after mechanical dissociation, the cell suspension was washed and plated on poly-L-lysine (Sigma-Aldrich, St. Louis, Mo., USA, 10 μg/mL) coated flasks (75 cm^2). Mixed glial cells were cultured for 10-13 days in Basal Medium Eagle (BME, Life technologies Ltd, Paisley, UK) supplemented with 100 mL/L heat-inactivated FBS (Life technologies), 2 mmol/L glutamine (Sigma-Aldrich) and 100 μmol/L gentamicin sulfate (Sigma-Aldrich). […]
Neurotoxicology 2007, 28, 637-44]. […] Following a 20 minutes incubation for CGNs and 2 hours for glial cells at 37° C. in the dark, the MTT precipitate was dissolved in 0.1 M Tris-HCl buffer containing 5% Triton X-100 (all from Sigma-Aldrich) and absorbance was read at 570 nm in a multiplate spectophotometric reader (Bio-Rad).

[2] = system: inducible nitric oxide synthase (iNOS); assay: Western blot analysis of iNOS (M1 marker) in LPS-stimulated glial cells; assay type: cell-based; conditions: LPS 100 ng/mL, 24 hours co-treatment, 0, 5, 10 and 20 μM; dose-dependent; primary rat glial cells (FIGS. 5a, b)
Method: Mixed glial cell cultures were prepared from cerebral cortex of newborn Wistar rats (Rattus norvegicus), as previously described [Monti, B.; D'Alessandro, C.; Farini, V.; Bolognesi, A.; Polazzi, E.; Contestabile, A.; Stirpe, F.; Battelli, M. G. In vitro and in vivo toxicity of type 2 ribosome-inactivating proteins lanceolin and stenodactylin on glial and neuronal cells. Neurotoxicology 2007, 28, 637-644]. Briefly, brain tissue was cleaned from meninges, trypsinized for 15 minutes at 37° C. and, after mechanical dissociation, the cell suspension was washed and plated on poly-L-lysine (Sigma-Aldrich, St. Louis, Mo., USA, 10 μg/mL) coated flasks (75 cm^2). Mixed glial cells were cultured for 10-13 days in Basal Medium Eagle (BME, Life technologies Ltd, Paisley, UK) supplemented with 100 mL/L heat-inactivated FBS (Life technologies), 2 mmol/L glutamine (Sigma-Aldrich) and 100 μmol/L gentamicin sulfate (Sigma-Aldrich).
Microglial cells were harvested from mixed glial cell cultures by mechanical shaking, resuspended in fresh medium without serum and plated on uncoated 35 mm Ø dishes at a density of 1.5×10^6 cells/1.5 mL medium/well for western blot analysis or on 96 wells at 1×10^5 cells/0.2 mL medium/well for MTT assay. Cells were allowed to adhere for 30 minutes and then washed to remove non-adhering cells. […]

Row | Structure (SMILES) | toxicity in glial and neuronal cells (MTT viability) [1] | LPS-induced iNOS induction [2]
1 | CCNC1=NC(c2ccc(F)cc2)NC(=O)N1 (racemic) [Example 3, 6-(ethylamino)-4-(4-fluorophenyl)-3,4-dihydro-1,3,5-triazin-2(1H)-one] | did not display any toxicity | reduced
2 | CCCNC1=NC(c2ccc(F)cc2)NC(=O)N1 (stereo not shown) [Example 6, 4-(4-fluorophenyl)-6-(propylamino)-3,4-dihydro-1,3,5-triazin-2(1H)-one] | did not display any toxicity | reduced

Reference: patent US9975861B2, “Dual inhibitor compounds for use in the treatment of neurodegenerative disorders and alzheimer's disease” (FONDAZIONE ISTITUTO ITALIANO DI TECNOLOGIA, priority 2014, dated 2018)
